Reference: article PMC4381587, “A novel PI3K inhibitor PIK-C98 displays potent preclinical activity against multiple myeloma” (Oncotarget, 2014)

Assays:
[1] = target: recombinant human PI3K isoform α (Homo sapiens, UniProt P42336); assay: Kinase activity in cell-free assay (HotSpot), PI3Kα; type: biochemical; settings: read-out: IC50 against PI3K α isoform
Experimental: (§1) To confirm this hypothesis, the inhibitory potency of C98 on PI3K enzymes was measured in a cell-free system with individual recombinant human PI3K isoforms. […] To further evaluate its specificity on PI3K, the effects of C98 on other associated kinases AKT, PDK1, and mTOR were also measured in the enzymatic systems. […] Therefore, C98 preferred to inhibit PI3K activity.
(§2) Figure 1 C98 inhibits PI3K activity (A) Chemical structure of C98. (B) OPM2 cells were starved overnight and then treated with six compounds identified from the virtual screening for 2 hr, followed by IGF-1 stimulation for 15 min. Cell lysates were prepared for AKT expression and phosphorylation analyses. The known PI3K inhibitor S14161 was used as a positive control. (C) OPM2 cells were starved overnight, then treated with C98 at indicated concentration (25, 50 and 100 μM) or S14161 (100 μM) for 2 hr, followed by IGF-1 (100 ng/mL) stimulation for 15 min Cell lysates were prepared for AKT expression and phosphorylation analyses. […] Activity of each kinase was determined with HotSpot technology as described in the Methods section “Kinase activity in cell-free assay”. […]

[2] = target: recombinant human PI3K isoform δ (Homo sapiens, UniProt O00329); assay: Kinase activity in cell-free assay (HotSpot), PI3Kδ; type: biochemical; settings: read-out: IC50 against PI3K δ isoform
Experimental: as §1, §2

[3] = tested on: AKT; assay: Kinase activity in cell-free assay, AKT; type: biochemical; settings: enzymatic system; read-out: IC50 on AKT activation
Experimental: as §1
Kinase activity in the presence of C98 was performed by using the HotSpot technology (Reaction Biology Corp., Malvern, PA, USA) as described previously.

[4] = tested on: AKT phosphorylation in OPM2 cells; assay: Immunoblotting of AKT phosphorylation in starved, IGF-1-stimulated OPM2 cells; type: cell-based, human; settings: OPM2 starved overnight, C98 25-100 μM, 0.5-2 hr, then IGF-1 100 ng/mL 15 min
Experimental: as §1, §2

[5] = tested on: IGF-1R; assay: Immunoblotting of IGF-1R phosphorylation in starved, IGF-1-stimulated LP1 and JJN3 cells; type: cell-based; settings: 100 μM, 2 hr, then IGF-1
Experimental: (§3) (B) LP1 and JJN3 cells were starved overnight, then treated with C98 or S14161 for 2 hr, followed by IGF-1 (100 ng/mL) for 15 min. Cells were then prepared for the analysis of the expression of p-AKT, t-AKT, p-IGF-1R, and IGF-1R by immunoblotting. (C) OPM2 and JJN3 cells were treated with increasing concentrations of C98 for 24 hr before being applied to immunoblotting against p-ERK, t-ERK, p-P38, t-P38, p-Src, t-Src, p-STAT3, or t-STAT3. GAPDH and β-actin were used as loading controls.
To find out whether C98 also interfered with other signaling pathways, we first checked the receptor tyrosine kinase IGF-1R, which mediates PI3K activation in MM cells in the presence of IGF-1. Starved MM cells LP1 and JJN3 were incubated with C98 followed by IGF-1 stimulation. […] Moreover, we also measured the expression of PTEN, a negative regulator of PI3K signaling, in MM cells after C98 treatment.
(§4) The immunoblotting assays were performed as described previously. IRDye 680 goat anti-mouse and IRDye 800CW goat anti-rabbit antibodies were from Odyssey (San Ramon, CA, USA).

[6] = tested on: ERK; assay: Immunoblotting of ERK phosphorylation in OPM2 and JJN3 cells; type: cell-based, human; settings: OPM2 and JJN3, 24 hr
Experimental: as §3
To further clarify the effects of C98 on other signaling pathways associated with PI3K signaling, we evaluated ERK and p38, both of which mediate extracellular signaling similar to PI3K. […] We also checked the phosphorylation status of STAT3, a signal transducer and activator of transcription. […] Therefore, C98 had no effects on these kinases/proteins associated with PI3K signaling.
as §4

[7] = tested on: JJN3 cells; assay: Immunoblotting of caspase-3 activation in JJN3 cells; type: cell-based, human; settings: JJN3, 0-20 μM 24 hr or 10 μM 0-9 hr
Experimental: (§5) To answer whether C98 could induce apoptosis in other MM cells, 5 more MM cells were subject to the study. […] Cell apoptosis induced by C98 was further confirmed by the increased fraction of positive cells stained with Annexin V (Figure 5). To show whether activated PI3K signals can rescue C98 effects on MM cells, both OPM2 and RPMI-8226 cells were treated with IGF-1 alone or together with C98 for 48 hr followed by MTT assay.
(§6) Figure 4 C98 activates apoptotic signaling in MM cells (A) JJN3 cells were treated with C98 (0, 2.5, 5, 10, 20 μM) for 24 hr or 10 μM for 0, 3, 6, or 9 hr, followed by immunoblotting for the expression of p-AKT, t-AKT, pro-caspase-3 (Pro-Casp3), and cleaved caspase-3 (Cle-Casp3). (B) KMS11, LP1, OCI-My5, OPM2, JJN3, and RPMI-8226 were treated with C98 (20 μM) for 24 hr, followed by immunoblotting for the expression of PARP, Pro-Casp3, and Cle-Casp3. GAPDH was used as a loading control.
as §4

[8] = tested on: KMS11, LP1, OCI-My5, OPM2, JJN3, and RPMI-8226; assay: Immunoblotting of PARP and caspase-3 cleavage in MM cell lines; type: cell-based; settings: all cell lines examined, 20 μM, 24 hr
Experimental: as §5, §6, §4

[9] = tested on: JJN3 xenograft; assay: JJN3 myeloma xenograft in nude mice; type: in vivo
[10] = JJN3 xenograft, 40 mg/kg oral daily, 16 days
[11] = JJN3 xenograft, 80 mg/kg oral daily, 16 days

Chain of recombinant human PI3K isoform α (P42336 whole entry, canonical isoform): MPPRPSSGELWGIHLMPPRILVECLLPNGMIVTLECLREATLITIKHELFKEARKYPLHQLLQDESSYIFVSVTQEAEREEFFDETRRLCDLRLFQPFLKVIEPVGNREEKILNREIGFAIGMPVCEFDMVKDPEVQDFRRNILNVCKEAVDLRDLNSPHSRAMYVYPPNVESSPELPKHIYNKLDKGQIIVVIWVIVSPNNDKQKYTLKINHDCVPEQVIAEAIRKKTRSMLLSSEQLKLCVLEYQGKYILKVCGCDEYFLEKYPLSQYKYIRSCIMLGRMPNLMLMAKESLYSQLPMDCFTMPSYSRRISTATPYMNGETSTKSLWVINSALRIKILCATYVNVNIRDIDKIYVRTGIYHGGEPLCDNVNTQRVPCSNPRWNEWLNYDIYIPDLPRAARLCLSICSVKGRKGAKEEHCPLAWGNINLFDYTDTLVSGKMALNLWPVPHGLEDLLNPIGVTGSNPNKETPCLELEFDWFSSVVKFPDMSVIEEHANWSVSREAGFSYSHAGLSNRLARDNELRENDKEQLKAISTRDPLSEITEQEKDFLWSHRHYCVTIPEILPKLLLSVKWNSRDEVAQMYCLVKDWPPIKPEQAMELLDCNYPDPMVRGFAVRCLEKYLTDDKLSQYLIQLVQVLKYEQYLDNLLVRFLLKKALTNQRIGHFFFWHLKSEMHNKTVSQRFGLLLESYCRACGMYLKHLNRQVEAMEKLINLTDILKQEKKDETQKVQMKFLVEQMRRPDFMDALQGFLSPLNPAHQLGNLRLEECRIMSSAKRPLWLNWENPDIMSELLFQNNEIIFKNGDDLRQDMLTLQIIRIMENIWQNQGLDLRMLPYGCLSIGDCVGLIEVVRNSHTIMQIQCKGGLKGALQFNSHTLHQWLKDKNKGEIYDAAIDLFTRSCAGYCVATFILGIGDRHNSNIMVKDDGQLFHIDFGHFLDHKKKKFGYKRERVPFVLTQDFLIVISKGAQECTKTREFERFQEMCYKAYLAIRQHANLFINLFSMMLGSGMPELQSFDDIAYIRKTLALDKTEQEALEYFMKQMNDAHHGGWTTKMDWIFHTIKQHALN
Chain of recombinant human PI3K isoform α (P27986 whole entry partner, canonical isoform): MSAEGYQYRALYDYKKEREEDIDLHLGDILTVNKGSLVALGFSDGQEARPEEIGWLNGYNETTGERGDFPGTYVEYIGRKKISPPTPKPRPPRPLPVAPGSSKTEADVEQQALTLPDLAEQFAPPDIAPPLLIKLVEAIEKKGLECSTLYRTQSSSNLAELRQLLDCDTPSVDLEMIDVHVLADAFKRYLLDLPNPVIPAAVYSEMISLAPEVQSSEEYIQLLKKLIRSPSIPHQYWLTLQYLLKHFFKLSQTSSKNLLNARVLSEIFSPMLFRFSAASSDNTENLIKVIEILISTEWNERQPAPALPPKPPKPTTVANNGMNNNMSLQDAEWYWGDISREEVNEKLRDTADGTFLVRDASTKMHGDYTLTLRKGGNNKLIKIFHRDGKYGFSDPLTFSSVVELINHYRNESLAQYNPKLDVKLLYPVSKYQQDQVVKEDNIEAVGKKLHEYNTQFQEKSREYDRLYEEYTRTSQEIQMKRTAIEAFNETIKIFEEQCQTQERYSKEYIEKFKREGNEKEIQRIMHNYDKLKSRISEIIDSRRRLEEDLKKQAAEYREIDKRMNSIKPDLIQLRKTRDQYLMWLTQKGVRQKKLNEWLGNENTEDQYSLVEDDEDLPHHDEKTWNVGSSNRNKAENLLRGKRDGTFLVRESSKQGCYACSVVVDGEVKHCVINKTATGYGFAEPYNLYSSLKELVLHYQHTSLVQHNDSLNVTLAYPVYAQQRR
Chain of recombinant human PI3K isoform δ (O00329 whole entry, canonical isoform): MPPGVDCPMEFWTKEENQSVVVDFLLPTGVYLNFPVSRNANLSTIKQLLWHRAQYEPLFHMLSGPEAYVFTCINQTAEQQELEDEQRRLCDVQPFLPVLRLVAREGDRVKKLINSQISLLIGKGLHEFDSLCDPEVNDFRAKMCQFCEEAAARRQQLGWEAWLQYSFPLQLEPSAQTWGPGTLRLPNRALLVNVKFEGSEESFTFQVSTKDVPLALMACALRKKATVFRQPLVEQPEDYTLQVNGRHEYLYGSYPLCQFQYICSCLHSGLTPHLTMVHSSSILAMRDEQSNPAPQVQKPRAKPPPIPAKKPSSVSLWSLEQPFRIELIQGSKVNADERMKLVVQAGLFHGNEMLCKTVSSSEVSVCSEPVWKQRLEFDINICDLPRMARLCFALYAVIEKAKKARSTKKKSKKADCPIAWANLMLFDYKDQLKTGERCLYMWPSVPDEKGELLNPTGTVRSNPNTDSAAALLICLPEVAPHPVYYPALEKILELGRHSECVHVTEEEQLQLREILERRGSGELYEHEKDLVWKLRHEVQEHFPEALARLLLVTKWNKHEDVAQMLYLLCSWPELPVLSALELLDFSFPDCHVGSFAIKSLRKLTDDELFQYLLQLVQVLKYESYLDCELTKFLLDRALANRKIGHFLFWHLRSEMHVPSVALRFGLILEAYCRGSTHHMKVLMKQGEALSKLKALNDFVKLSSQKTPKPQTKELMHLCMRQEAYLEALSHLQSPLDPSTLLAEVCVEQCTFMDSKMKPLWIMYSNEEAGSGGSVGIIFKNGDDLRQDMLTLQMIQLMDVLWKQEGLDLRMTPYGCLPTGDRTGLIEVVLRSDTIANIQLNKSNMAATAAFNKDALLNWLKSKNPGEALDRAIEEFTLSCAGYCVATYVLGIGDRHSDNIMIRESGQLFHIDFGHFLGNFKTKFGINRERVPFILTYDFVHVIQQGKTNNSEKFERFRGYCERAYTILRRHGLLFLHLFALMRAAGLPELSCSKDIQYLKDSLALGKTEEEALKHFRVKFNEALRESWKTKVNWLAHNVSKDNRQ
Chain of recombinant human PI3K isoform δ (P27986 whole entry partner, canonical isoform): as the sequence (P27986 whole entry partner, canonical isoform) above

N#C/C(=C\C=C\c1ccc(-c2cc(Cl)ccc2Cl)o1)C(N)=S [C98]
IC50 [1]: 0.59 µM
IC50 [2]: 3.65 µM
IC50 [3]: 61.4 µM
AKT phosphorylation [4]: inhibited AKT phosphorylation in a time- and concentration-dependent manner
IGF-1R activation (phosphorylation) [5]: had no effects on IGF-1R activation
phosphorylation level of ERK [6]: failed to decrease
caspase-3 activation [7]: activated caspase-3 in a time- and concentration-dependent manner
cleavage of caspase-3 and PARP (apoptosis) [8]: both caspase-3 and PARP were cleaved
AKT phosphorylation in tumors ([9]; JJN3 tumors, both 40 and 80 mg/kg doses, immunoblotting): decreased
decrease of tumor growth [9, 10]: 48%
tumor volume [9, 10]: 1293.1 ± 289.7 mm^3
decreased tumor growth to % [9, 11]: 76.5%
tumor volume [9, 11]: 581.2 ± 73.2 mm^3
cleavage of PARP in tumors ([9]; MM tumors excised from C98-treated mice, especially high dose group): cleavage of PARP was found
